Data taken from US11691962B2 (eXIthera Pharmaceuticals, Inc., priority 2018, dated 2023).

What follows are compounds tested against Factor XIa (Homo sapiens (Human), UniProt P03951) (assay: Factor XIa enzyme inhibition assay (dose response, fluorogenic AMC substrate)). Conditions: read-out: hFXIa IC50.
Assay type: biochemical
Protocol: • Assay buffer: 20 mM Hepes, pH 7.4; 150 mM NaCl; 0.02% Tween 20 • Compounds: 10 mM stocks in DMSO • Substrate: 20 mM Glp-Pro-Arg-AMC, 25 mg/2.3 mL H2O (store at +4° C.) [Factor XIa, thrombin, and trypsin] • 20 mM Pro-Phe-Arg-AMC (Bachem I-1295), 25 mg/2.2 mL H2O • or Boc-Leu-Gly-Arg-AMC (Bachem I-1105), 25 mg/2.07 mL H2O • (store at +4° C.) [Factor Xa] • Enzyme: Factor XIa; 0.25 μM in 50% glycerol (20 μg/mL) • Trypsin; 0.2 μM in 50% glycerol (4.8 μg/mL) • Thrombin; 0.2 μM in 50% glycerol (7.34 μg/mL) • Factor Xa; 0.2 μM in 50% glycerol (9.2 μg/mL) • These stocks are aliquoted (˜100 μL/aliquot) and stored at −20° C. Methods: • 1. Dilute the substrate to 100 μM in assay buffer (30 μL/6 mL). The enzyme is diluted to 0.5 nM just prior to use (12 μL/6 mL for Factor XIa; 15 μL/6 mL for all of the rest.) • 2. Pipette 50 μL of substrate into each well of the 96 well (12×8) microtiter plate. (Column 1 is used as the 100% activity control and receives no compound, and Column 12 is the blank and receives no enzyme.) Add an additional 46 μL to column 2. • 3. Pipette 4 μL of each compound into the appropriate well in column 2 of the plate (unknowns assayed in triplicate, standard assayed in duplicate). The final compound concentration will be […] of the stock. • 4. Serially two-fold dilute the compound by mixing the sample in column 2, removing 50 μL to the next well (column 3), mix and remove to column 4, etc. until column 11. After mixing column 11, remove 50 μL and discard. • 5. Pipette 50 μL of buffer into column 12. Initiate the reaction by adding 50 μL of enzyme solution to each well of columns 1-11 as rapidly as possible. • 6. Read the plate in a spectrophotometer (SpectraMax) at 30° C., wherein each well is measured every 60 s for 30 min. For Factor Xa assays, each well is measured every 1 min for a total of 60 min. • 7. For Factor XIa assays, the compounds are assayed, in duplicate, at 3 different starting concentrations, 20, 2, and 0.2 μM; 1:10, 1:100, and 1:1000 dilution of 10 mM stock or at 2, 0.2, and 0.02 μM; 1:100, 1:1000, and 1:10,000 dilution of 10 mM stock. Data for each concentration are combined for graphing and data fitting. • 8. Data can be used both for estimation of IC50 and for estimation of Kon.
Potential inhibitors of Factor XIa were evaluated using the following assay.
PyroGlu-Pro-Arg-7-methylaminocourin (AMC), available from CPC Scientific, Inc., is based on the substrate pyro-Glu-Pro-Arg-pNA (S-2366), available from Diapharma Group, Inc. (Columbus, Ohio), wherein the p-nitroanaline group is replaced with 7-methylaminocoumarin (AMC).
The final concentration of the substrate in the assay was 50 μM, and the final concentration of the enzyme was 0.25 nM. Inhibitors were tested by serial dilution over an appropriate range to yield a dose response curve for determination of the inhibitors' IC50 value. The assay mixture was read every minute for 30 minutes in order to generate progress curves. The plates were read in a Spectramax m5 Multimode Plate Reader (Molecular Devices LLC, Sunnyvale, Calif.). Dose response curves were fit to Equation 1 below in which A is the maximum inhibition, B is the minimum inhibition, C is the IC50, and D is the Hill coefficient. Y=[(A−B)/(1+(X/C)^D)]+B (Equation 1)

Chain of Factor XIa (P03951 388-625): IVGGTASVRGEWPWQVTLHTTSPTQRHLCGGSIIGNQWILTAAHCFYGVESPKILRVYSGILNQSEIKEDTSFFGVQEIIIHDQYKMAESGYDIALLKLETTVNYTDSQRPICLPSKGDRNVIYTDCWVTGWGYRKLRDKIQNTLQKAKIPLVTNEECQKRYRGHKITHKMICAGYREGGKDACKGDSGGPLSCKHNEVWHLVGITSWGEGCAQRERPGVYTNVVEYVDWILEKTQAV
Chain of Factor XIa (P03951 19-387 partner): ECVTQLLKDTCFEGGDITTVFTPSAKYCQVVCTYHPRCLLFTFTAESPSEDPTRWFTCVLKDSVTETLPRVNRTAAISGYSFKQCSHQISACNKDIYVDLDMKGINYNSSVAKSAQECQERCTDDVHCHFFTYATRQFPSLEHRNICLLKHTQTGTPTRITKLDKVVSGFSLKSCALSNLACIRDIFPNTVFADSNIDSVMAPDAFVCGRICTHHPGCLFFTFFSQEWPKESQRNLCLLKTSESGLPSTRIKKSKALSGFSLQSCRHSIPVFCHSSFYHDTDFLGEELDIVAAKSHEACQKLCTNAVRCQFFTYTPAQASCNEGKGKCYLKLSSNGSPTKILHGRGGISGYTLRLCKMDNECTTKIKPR

Compound	IC50 [µM]
CC[C@@H](NC(=O)N1C(=O)[C@H](Cc2ccnc(N)c2)[C@H]1C(=O)N(C)c1nccn1C)c1ccc(C)nc1C [Compound 1-95, (2S,3R)-3-((2-aminopyridin-4-yl)methyl)-N2-(1-methyl-1H-imidazol-2-yl)-N1-((R)-1-(2,6-dimethylpyridin-3-yl)propyl)-N2-methyl-4-oxoazetidine-1,2-dicarboxamide]	0.01 to 0.1
CC[C@@H](NC(=O)N1C(=O)[C@H](Cc2ccnc(N)c2)[C@H]1C(=O)N(C)c1nccn1C)C1CCCCO1 (stereo partly drawn) [Compound 1-121, (2S,3R)-3-((2-aminopyridin-4-yl)methyl)-N2-(1-methyl-1H-imidazol-2-yl)-N1-((R)-1-(oxan-2-yl)propyl)-N2-methyl-4-oxoazetidine-1,2-dicarboxamide]	0.01 to 0.1
CC[C@@H](NC(=O)N1C(=O)[C@H](Cc2cc(C)nc(N)c2)[C@H]1C(=O)N(C)c1cnn(C)c1)c1cccc(F)c1F [Compound 1-174, (2S,3R)-3-((2-amino-6-methylpyridin-4-yl)methyl)-N2-(1-methyl-1H-pyrazol-4-yl)-N1-((R)-1-(2,3-difluorophenyl)propyl)-N2-methyl-4-oxoazetidine-1,2-dicarboxamide]	0.01 to 0.1
CC[C@@H](NC(=O)N1C(=O)[C@H](Cc2cc(C)nc(N)c2)[C@H]1C(=O)N(C)c1cnn(C)c1)c1cc(C)ccc1F [Compound 1-177, (2S,3R)-3-((2-amino-6-methylpyridin-4-yl)methyl)-N2-(1-methyl-1H-pyrazol-4-yl)-N1-((R)-1-(2-fluoro-5-methylphenyl)propyl)-N2-methyl-4-oxoazetidine-1,2-dicarboxamide]	0.01 to 0.1
CN(C(=O)[C@@H]1[C@@H](Cc2ccnc(N)c2)C(=O)N1C(=O)N[C@@H](C1CC1)C(F)(F)F)c1ccn(C)n1 [Compound 1-30, (2S,3R)-3-((2-aminopyridin-4-yl)methyl)-N2-(1-methyl-1H-pyrazol-3-yl)-N1-((S)-1-cyclopropyl-2,2,2-trifluoroethyl)-N2-methyl-4-oxoazetidine-1,2-dicarboxamide]	0.01 to 0.1
CC[C@@H](NC(=O)N1C(=O)[C@H](Cc2cc(C)nc(N)c2)[C@H]1C(=O)N(C)c1cnn(C)c1)c1ccc(F)cc1C [Compound 1-180, (2S,3R)-3-((2-amino-6-methylpyridin-4-yl)methyl)-N2-(1-methyl-1H-pyrazol-4-yl)-N1-((R)-1-(4-fluoro-2-methylphenyl)propyl)-N2-methyl-4-oxoazetidine-1,2-dicarboxamide]	0.01 to 0.1
CNC(=O)N1C(=O)[C@H](Cc2ccnc(N)c2)[C@H]1C(=O)N(C)c1ccn(C)n1 [Compound 1-64, (2S,3R)-3-((2-aminopyridin-4-yl)methyl)-N2-(1-methyl-1H-pyrazol-3-yl)-N1-methyl-N2-methyl-4-oxoazetidine-1,2-dicarboxamide]	0.1 to 1
CC[C@@H](NC(=O)N1C(=O)[C@H](Cc2ccnc(NC)c2)[C@H]1C(=O)N(C)c1ccnn1C)c1cccc(Cl)c1 [Compound 1-36, (2S,3R)-3-((2-methylaminopyridin-4-yl)methyl)-N2-(1-methyl-1H-pyrazol-5-yl)-N1-((R)-1-(3-chlorophenyl)propyl)-N2-methyl-4-oxoazetidine-1,2-dicarboxamide]	0.01 to 0.1
CC[C@@H](NC(=O)N1C(=O)[C@H](Cc2cc(C)nc(N)c2)[C@H]1C(=O)N(C)c1nnco1)c1ccccc1 [Compound 1-187, (2S,3R)-3-((2-amino-6-methylpyridin-4-yl)methyl)-N2-(1,3,4-oxadiazol-2-yl)-N1-((R)-1-phenylpropyl)-N2-methyl-4-oxoazetidine-1,2-dicarboxamide]	< 0.01
CC[C@@H](NC(=O)N1C(=O)[C@H](Cc2ccnc(N(C)C)c2)[C@H]1C(=O)N(C)c1cnn(C)c1)c1ccccc1 [Compound 1-5, (2S,3R)-3-((2-dimethylaminopyridin-4-yl)methyl)-N2-(1-methyl-1H-pyrazol-4-yl)-N1-((R)-1-phenylpropyl)-N2-methyl-4-oxoazetidine-1,2-dicarboxamide]	> 1
CC[C@@H](NC(=O)N1C(=O)[C@H](Cc2cc(C)nc(N)c2)[C@H]1C(=O)N(C)c1ccnn1C)c1ccc(Cl)cc1 [Compound 1-157, (2S,3R)-3-((2-amino-6-methylpyridin-4-yl)methyl)-N2-(1-methyl-1H-pyrazol-5-yl)-N1-((R)-1-(4-chlorophenyl)propyl)-N2-methyl-4-oxoazetidine-1,2-dicarboxamide]	0.01 to 0.1
CC[C@@H](NC(=O)N1C(=O)[C@H](Cc2cc(C)nc(N)c2)[C@H]1C(=O)N(C)c1ccnn1C)c1cccc(F)c1C [Compound 1-150, (2S,3R)-3-((2-amino-6-methylpyridin-4-yl)methyl)-N2-(1-methyl-1H-pyrazol-5-yl)-N1-((R)-1-(3-fluoro-2-methylphenyl)propyl)-N2-methyl-4-oxoazetidine-1,2-dicarboxamide]	< 0.01

Results, then the compound that gave them:

IC50 [µM]	Compound
< 0.01	CC[C@@H](NC(=O)N1C(=O)[C@H](Cc2ccnc(N)c2)[C@H]1C(=O)N(C)c1cnn(C)c1)c1cc(C)c(F)c(C)c1 [Compound 1-206, (2S,3R)-3-((2-aminopyridin-4-yl)methyl)-N2-(1-methyl-1H-pyrazol-4-yl)-N1-((R)-1-(3,5-dimethyl-4-fluorophenyl)propyl)-N2-methyl-4-oxoazetidine-1,2-dicarboxamide]
< 0.01	CC[C@@H](NC(=O)N1C(=O)[C@H](Cc2cc(C)nc(N)c2)[C@H]1C(=O)N(C)c1ccnn1C)c1cc(C)ccc1F [Compound 1-164, (2S,3R)-3-((2-amino-6-methylpyridin-4-yl)methyl)-N2-(1-methyl-1H-pyrazol-5-yl)-N1-((R)-1-(2-fluoro-5-methylphenyl)propyl)-N2-methyl-4-oxoazetidine-1,2-dicarboxamide]
< 0.01	CC[C@@H](NC(=O)N1C(=O)[C@H](Cc2cc(C)nc(N)c2)[C@H]1C(=O)N(C)c1ccnn1C)c1ccc(F)c(C)c1 [Compound 1-153, (2S,3R)-3-((2-amino-6-methylpyridin-4-yl)methyl)-N2-(1-methyl-1H-pyrazol-5-yl)-N1-((R)-1-(4-fluoro-3-methylphenyl)propyl)-N2-methyl-4-oxoazetidine-1,2-dicarboxamide]
< 0.01	CC[C@@H](NC(=O)N1C(=O)[C@H](Cc2cc(C)nc(N)c2)[C@H]1C(=O)N(C)c1cnn(C)c1)c1ccc(C)c(F)c1 [Compound 1-172, (2S,3R)-3-((2-amino-6-methylpyridin-4-yl)methyl)-N2-(1-methyl-1H-pyrazol-4-yl)-N1-((R)-1-(3-fluoro-4-methylphenyl)propyl)-N2-methyl-4-oxoazetidine-1,2-dicarboxamide]
< 0.01	CC[C@@H](NC(=O)N1C(=O)[C@H](Cc2ccnc(N)c2)[C@H]1C(=O)N(C)c1ccnn1C)c1cc(F)c(F)c(F)c1 [Compound 1-204, (2S,3R)-3-((2-aminopyridin-4-yl)methyl)-N2-(1-methyl-1H-pyrazol-5-yl)-N1-((R)-1-(3,4,5-trifluorophenyl)propyl)-N2-methyl-4-oxoazetidine-1,2-dicarboxamide]
< 0.01	CC[C@@H](NC(=O)N1C(=O)[C@H](Cc2cc(C)nc(N)c2)[C@H]1C(=O)N(C)c1ccnn1C)c1ccc(C)cc1C [Compound 1-161, (2S,3R)-3-((2-amino-6-methylpyridin-4-yl)methyl)-N2-(1-methyl-1H-pyrazol-5-yl)-N1-((R)-1-(2,4-dimethylphenyl)propyl)-N2-methyl-4-oxoazetidine-1,2-dicarboxamide]
< 0.01	CC[C@@H](NC(=O)N1C(=O)[C@H](Cc2ccnc(N)c2)[C@H]1C(=O)N(C)c1nccn1C)c1ccc(C)cc1F [Compound 1-119, (2S,3R)-3-((2-aminopyridin-4-yl)methyl)-N2-(1-methyl-1H-imidazol-2-yl)-N1-((R)-1-(2-fluoro-4-methylphenyl)propyl)-N2-methyl-4-oxoazetidine-1,2-dicarboxamide]
